We go through 33 compounds from US20080194616A1, “PYRIDOPYRIMIDINONE COMPOUNDS USEFUL IN TREATING SODIUM CHANNEL-MEDIATED DISEASES OR CONDITIONS” (Xenon Pharmaceuticals Inc., priority 2007, published 2008).

Structures can show the parent of a compound that is named as a salt.

Compound `O=c1c(-c2ccc(N[C@@H]3CCNC3)cc2)c(N2CCCC2)nc2ccccn12` (as salt: chloride) [Example 7.11, (R)-2-pyrrolidin-1-yl-3-{4-[pyrrolidin-3-ylamino]phenyl}-4H-pyrido[1,2-a]pyrimidin-4-one hydrogen chloride] registered a melting point of 177 to 183 °C.
For `CCCCc1nc2ccccn2c(=O)c1-c1ccc2c(c1)CCN2` (as salt: hydrochloride) [Example 2, 2-butyl-3-(indolin-5-yl)-4H-pyrido[1,2-a]pyrimidin-4-one hydrochloride] the value was 157 to 162 °C; for `CCCCc1nc2ccccn2c(=O)c1-c1ccc(NC[C@H]2CCCO2)cc1` (as salt: hydrochloride) [Example 3.27, (R)-2-butyl-3-(4-{[tetrahydrofuran-2-ylmethyl]amino}phenyl)-4H-pyrido[1,2-a]pyrimidin-4-one hydrochloride], 155 to 170 °C; for `CCCCc1nc2ccccn2c(=O)c1-c1ccc(NC[C@@H]2CCCO2)cc1` (as salt: hydrochloride) [Example 3.28, (S)-2-butyl-3-(4-{[tetrahydrofuran-2-ylmethyl]amino}phenyl)-4H-pyrido[1,2-a]pyrimidin-4-one hydrochloride], 155 to 170 °C.
For `CCCCc1nc2ccccn2c(=O)c1-c1ccc(N[C@@H]2CCOC2)cc1` (as salt: hydrochloride) [Example 3.29, (R)-2-butyl-3-{4-[tetrahydrofuran-3-ylamino]phenyl}-4H-pyrido[1,2-a]pyrimidin-4-one hydrochloride] the value was 135 to 145 °C; for `CCCCc1nc2ccccn2c(=O)c1-c1ccc(NC2CCCNC2)cc1` (stereo not drawn) (as salt: hydrochloride) [Example 6, 2-butyl-3-[4-(piperidin-3-ylamino)phenyl]-4H-pyrido[1,2-a]pyrimidin-4-one hydrochloride], 178 to 185 °C.
For `CCCCc1nc2ccccn2c(=O)c1-c1ccc(NC2CCNCC2)cc1` (as salt: hydrochloride) [Example 6.1, 2-butyl-3-[4-(piperidin-4-ylamino)phenyl]-4H-pyrido[1,2-a]pyrimidin-4-one hydrochloride] the value was greater than 220 °C; for `CCCCc1nc2ccccn2c(=O)c1-c1ccc(N[C@@H]2CCCNC2)cc1` (as salt: hydrochloride) [Example 6.2, (R)-2-butyl-3-{4-[piperidin-3-ylamino]phenyl}-4H-pyrido[1,2-a]pyrimidin-4-one hydrochloride], 190 to 210 °C; for `Cc1nc2ccccn2c(=O)c1-c1ccc(N[C@@H]2CCNC2)cc1` (as salt: hydrochloride) [Example 6.3, (R)-2-methyl-3-(4-(pyrrolidin-3-ylamino)phenyl)-4H-pyrido[1,2-a]pyrimidin-4-one hydrochloride], 149 to 158 °C.
Take `CCc1nc2ccccn2c(=O)c1-c1ccc(N[C@@H]2CCNC2)cc1` (as salt: hydrochloride) [Example 6.4, (R)-2-ethyl-3-(4-(pyrrolidin-3-ylamino)phenyl)-4H-pyrido[1,2-a]pyrimidin-4-one hydrochloride]: the melting point is 175 to 182 °C.
For `CCCCc1nc2ccccn2c(=O)c1-c1ccc(NC2CCNC2)cc1` (stereo not drawn) (as salt: hydrochloride) [Example 7, 2-butyl-3-(4-(pyrrolidin-3-ylamino)phenyl)-4H-pyrido[1,2-a]pyrimidin-4-one hydrochloride] the value was 136 to 139 °C.
`CCCCc1nc2ccccn2c(=O)c1-c1ccc(N[C@H]2CCNC2)cc1` (as salt: hydrochloride) [Example 7.1, (S)-2-butyl-3-{4-[pyrrolidin-3-ylamino]phenyl}-4H-pyrido[1,2-a]pyrimidin-4-one hydrochloride] registered a melting point of 164 to 171 °C.
Next, `CCCCc1nc2ccccn2c(=O)c1-c1ccc(N[C@@H]2CCNC2)c(F)c1` (as salt: hydrochloride) [Example 7.2, (R)-2-butyl-3-{3-fluoro-4-[(pyrrolidin-3-ylamino]phenyl}-4H-pyrido[1,2-a]pyrimidin-4-one hydrochloride]: 143 to 155 °C.
Regarding `CCCCc1nc2ccccn2c(=O)c1-c1ccc(N[C@@H]2CCNC2)cc1C` (as salt: hydrochloride) [Example 7.3, (R)-2-butyl-3-{2-methyl-4-[pyrrolidin-3-ylamino]phenyl}-4H-pyrido[1,2-a]pyrimidin-4-one hydrochloride], the melting point is 179 to 187 °C.
Next, `CCCCc1nc2ccccn2c(=O)c1-c1cccc(NC2CCNC2)c1` (stereo not drawn) (as salt: hydrochloride) [Example 7.4, 2-butyl-3-[3-(pyrrolidin-3-ylamino)phenyl]-4H-pyrido[1,2-a]pyrimidin-4-one hydrochloride]: greater than 170 °C.
Next, `CC(C)c1nc2ccccn2c(=O)c1-c1ccc(NC2CCNC2)cc1` (stereo not drawn) (as salt: hydrochloride) [Example 7.5, 2-(1-methylethyl)-3-[4-(pyrrolidin-3-ylamino)phenyl]-4H-pyrido[1,2-a]pyrimidin-4-one hydrochloride]: 180 to 184 °C; `CC(C)CCc1nc2ccccn2c(=O)c1-c1ccc(N[C@@H]2CCNC2)cc1` (as salt: hydrochloride) [Example 7.6, (R)-2-isopentyl-3-(4-(pyrrolidin-3-ylamino)phenyl)-4H-pyrido[1,2-a]pyrimidin-4-one hydrochloride]: 171 to 187 °C; `O=c1c(-c2ccc(N[C@@H]3CCNC3)cc2)c(CCC2CC2)nc2ccccn12` (as salt: hydrochloride) [Example 7.7, (R)-2-(2-cyclopropylethyl)-3-(4-(pyrrolidin-3-ylamino)phenyl)-4H-pyrido[1,2-a]pyrimidin-4-one hydrochloride]: 182 to 185 °C.
In turn, `CCCNc1nc2ccccn2c(=O)c1-c1ccc(NC2CCNC2)cc1` (stereo not drawn) (as salt: hydrochloride) [Example 7.8, 2-(propylamino)-3-[4-(pyrrolidin-3-ylamino)phenyl]-4H-pyrido[1,2-a]pyrimidin-4-one hydrochloride] registered a melting point of 156 to 161 °C.
Next, `CC(C)Nc1nc2ccccn2c(=O)c1-c1ccc(NC2CCNC2)cc1` (stereo not drawn) (as salt: hydrochloride) [Example 7.9, 2-[(1-methylethyl)amino]-3-[4-(pyrrolidin-3-ylamino)phenyl]-4H-pyrido[1,2-a]pyrimidin-4-one hydrochloride]: 232 to 236 °C.
Next, `CC(C)Nc1nc2ccccn2c(=O)c1-c1ccc(N[C@@H]2CCNC2)cc1` (as salt: hydrochloride) [Example 7.10, (R)-2-[(1-methylethyl)amino]-3-{4-[pyrrolidin-3-ylamino]phenyl}-4H-pyrido[1,2-a]pyrimidin-4-one hydrochloride]: 229 to 234 °C; `CCCCc1nc2ccccn2c(=O)c1-c1ccc2c(c1)CCN2C1CCNC1` (stereo not drawn) (as salt: hydrochloride) [Example 7.12, 2-butyl-3-(1-(pyrrolidin-3-yl)indolin-5-yl)-4H-pyrido[1,2-a]pyrimidin-4-one hydrochloride]: 159 to 163 °C.
For `CCCCc1nc2ccccn2c(=O)c1-c1ccc(N2CCNCC2)nc1` (as salt: hydrochloride) [Example 7.13, 2-butyl-3-(6-piperazin-1-ylpyridin-3-yl)-4H-pyrido[1,2-a]pyrimidin-4-one hydrochloride] the value was greater than 245 °C; for `CCCCc1nc2ccccn2c(=O)c1-c1ccc(O[C@@H]2CCNC2)cc1` (as salt: hydrochloride) [Example 15, (R)-2-butyl-3-{4-[pyrrolidin-3-yloxy]phenyl}-4H-pyrido[1,2-a]pyrimidin-4-one hydrochloride], 132 to 140 °C.
Turning to `CCCCc1nc2ccccn2c(=O)c1-c1ccc(N(C)C2CCCNC2)cc1` (stereo not drawn) (as salt: hydrochloride) [Example 17, 2-butyl-3-{4-[methyl(piperidin-3-yl)amino]phenyl}-4H-pyrido[1,2-a]pyrimidin-4-one hydrochloride], the melting point was 170 to 185 °C.
Compound `CCCCc1nc2ccccn2c(=O)c1-c1ccc(OS(=O)(=O)C(F)(F)F)cc1` (as salt: methanesulfonate) [Example 12, 4-(2-butyl-4-oxo-4H-pyrido[1,2-a]pyrimidin-3-yl)phenyl trifluoromethanesulfonate] gave a melting point of 106 to 108 °C.
Take `COc1nc2ccccn2c(=O)c1-c1ccc(NC2CCNC2)cc1` (stereo not drawn) (as salt: trifluoroacetate) [Example 9, 2-methoxy-3-[4-(pyrrolidin-3-ylamino)phenyl]-4H-pyrido[1,2-a]pyrimidin-4-one trifluoroacetate]: the melting point was 56 to 58 °C.
Next, `CCCOc1nc2ccccn2c(=O)c1-c1ccc(N[C@@H]2CCNC2)cc1` (as salt: trifluoroacetate) [Example 9.1, (R)-2-propoxy-3-(4-(pyrrolidin-3-ylamino)phenyl)-4H-pyrido[1,2-a]pyrimidin-4-one trifluoroacetate]: > 100 °C (dec.); `CCCc1nc2ccccn2c(=O)c1-c1ccc(Cl)cc1` [Example 1.4, 3-(4-chlorophenyl)-2-propyl-4H-pyrido[1,2-a]pyrimidin-4-one]: 109 to 110 °C.
For `CCCCc1nc2ccccn2c(=O)c1-c1ccccc1Cl` [Example 1.6, 2-butyl-3-(2-chlorophenyl)-4H-pyrido[1,2-a]pyrimidin-4-one] the value was 118 to 120 °C.
Next, `CCCCc1nc2ccccn2c(=O)c1-c1ccc(Cl)cc1C` [Example 1.9, 2-butyl-3-(4-chloro-2-methylphenyl)-4H-pyrido[1,2-a]pyrimidin-4-one]: 105 to 107 °C; `CCCCc1nc2ccccn2c(=O)c1-c1ccc(Cl)c(C)c1` [Example 1.10, 2-butyl-3-(4-chloro-3-methylphenyl)-4H-pyrido[1,2-a]pyrimidin-4-one]: 122 to 124 °C.
The compound `CCCCc1nc2ccccn2c(=O)c1-c1ccc(OC)c(Cl)c1` [Example 1.13, 2-butyl-3-(3-chloro-4-methoxyphenyl)-4H-pyrido[1,2-a]pyrimidin-4-one] returned a melting point of 113 to 115 °C.

One may read the melting point as the temperature, or range, at which the solid turns liquid.
